The source of these data is patent US10087478B2, “Compositions comprising a polypeptide having cellulolytic enhancing activity and a nitrogen-containing compound and uses thereof” (priority 2010, dated 2018).

Series [1] has as its system Trichoderma reesei cellulase composition. The series can be described thus: Nitrogen-containing compound effect(no GH61) on hydrolysis of AVICEL by T. reesei cellulase composition. Conditions: for reduction in hydrolysis: no GH61. It counts as biochemical. The protocol: The concentration of 1,2-benzenediamine compounds was 5 mM and the concentration of 2-aminophenol was 1 mM.
The concentration of nitrogen-containing compounds was 5 mM.
(§1) The concentration of the GH61 polypeptide was either 0.4 or 2 mg per g cellulose.

Series [2] relates to Penicillium pinophilum GH61A polypeptide. Briefly: Effect of TEMPO on P. pinophilum GH61A during AVICEL hydrolysis by T. reesei cellulase composition. It counts as biochemical. Conditions: GH61 0.4 or 2 mg per g cellulose, day 7. The procedure:
as §1

Series [3] deals with Aspergillus fumigatus GH61B polypeptide (Aspergillus fumigatus, UniProt Q4WP32). The series can be described thus: Effect of TEMPO on A. fumigatus GH61B during AVICEL hydrolysis by T. reesei cellulase composition. The class given is biochemical. Conditions: GH61 0.4 or 2 mg per g cellulose, day 7. The protocol: as §1
For series [4], the system named is Talaromyces stipitatus GH61 polypeptide. The series can be described thus: Effect of TEMPO on T. stipitatus GH61 during AVICEL hydrolysis by T. reesei cellulase composition. The conditions noted are these: GH61 0.4 or 2 mg per g cellulose, day 7. It counts as biochemical. The protocol:
as §1

The target of series [5] is Trichoderma reesei GH61B polypeptide (Trichoderma reesei, UniProt Q7Z9M7). Briefly: Effect of TEMPO on T. reesei GH61B during AVICEL hydrolysis by T. reesei cellulase composition. It counts as biochemical. Conditions: GH61 0.4 or 2 mg per g cellulose, day 7. The protocol: as §1
Chain of Trichoderma reesei GH61B polypeptide (Q7Z9M7 20-249): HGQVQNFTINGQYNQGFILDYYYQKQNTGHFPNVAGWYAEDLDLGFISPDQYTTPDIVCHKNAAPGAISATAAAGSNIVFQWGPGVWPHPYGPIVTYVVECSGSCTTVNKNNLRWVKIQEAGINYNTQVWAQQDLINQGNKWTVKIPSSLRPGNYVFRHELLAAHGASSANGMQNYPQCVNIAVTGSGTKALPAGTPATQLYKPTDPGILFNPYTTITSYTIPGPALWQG
Series [6] relates to Thielavia terrestris GH61E polypeptide. The series can be described thus: Effect of TEMPO on T. terrestris GH61E during AVICEL hydrolysis by T. reesei cellulase composition. It counts as biochemical. The procedure:
as §1

Series [7] relates to T. reesei cellulase composition. The series can be described thus: AVICEL cellulolysis by T. reesei cellulase composition with combinations of compounds and various GH61 polypeptides. The class given is biochemical, Trichoderma reesei.
For series [8], the system named is Trichoderma reesei cellulase composition. Briefly: Hydrolysis of AVICEL by T. reesei cellulase composition with and without GH61 polypeptide, no nitrogen-containing compound. It counts as biochemical. The source says: Microcrystalline cellulose was used as the source of the cellulosic material.
The mark [9] stands for this setting: pterin dissolved in DMSO, cellulose 29.5 mg per ml, 7 days.
Where [10] appears, read: Example 6, 5 mM compound, 14 mg/ml AVICEL, 1, 3, 5, 7 or 8 days (FIG. 2 white bars).

For the molecule `C[C@H](O)[C@H](O)[C@H]1CNc2nc(N)[nH]c(=O)c2N1.Cl.Cl` [(6R)-5,6,7,8-tetrahydrobiopterin dihydrochloride], the “nitrogen-containing compound effect(no GH61)” value was determined as 0.924±0.0191 in series [1] (pterin dissolved in DMSO, cellulose 29.5 mg per ml, 3 days) and 0.901±0.0332 in series [1] (setting [9]).
As for `O=C1NC(=O)C(=NO)C(=O)N1` [violuric acid], the “nitrogen-containing compound effect(no GH61)” value in series [1] (setting [10]) was “very slightly impacted”.
In the case of `ON=Cc1ccccn1` [pyridine-2-aldoxime], the “nitrogen-containing compound effect(no GH61)” value in series [1] (setting [10]) was “slightly decreased”.
With `CC1Nc2nc(N)[nH]c(=O)c2NC1C.Cl` (stereo not shown) [6,7-dimethyl-5,6,7,8-tetrahydropterine hydrochloride], the “nitrogen-containing compound effect(no GH61)” value in series [1] (pterin dissolved in DMSO, cellulose 29.5 mg per ml, 1 day (so in the source)) amounted to 0.715±0.00557; in series [1] (setting [9]), 0.684±0.0203.
`Nc1ccccc1N` [1,2-benzenediamine]: in series [1] (5 mM compound, 14 mg/ml AVICEL, 1, 5 and 8 days (FIG. 1A)), the “nitrogen-containing compound effect(no GH61)” value is recorded as “less than 1”.
As for `CC1(C)CCCC(C)(C)N1[O]` [TEMPO, 2,2,6,6-tetramethyl-1-piperidinyloxy], the “nitrogen-containing compound effect(no GH61)” value in series [1] (setting [10]) is listed as “less than 1”; in series [1] (Example 7, TEMPO, late stage of hydrolysis, day 7 (FIGS. 3A, 3B)) it was “less than 1”. The GH61 effect entry in series [2] is “greater than 1”; in series [3], “greater than 1”; in series [4] it was “greater than 1”; in series [5], “greater than 1”; in series [6] (GH61 0.4 or 2 mg per g cellulose, day 1), “greater than 1”. Moreover, the “nitrogen-containing compound effect(+GH61)” value in series [2] was “less than 1”; in series [3] (late stage) it was “less than 1”; in series [4], “less than 1”; in series [5], “less than 1”; in series [6] (GH61 0.4 or 2 mg per g cellulose, 1, 3 and 7 days), roughly 1.
Consider `Nc1ccccc1O` [2-aminophenol], for which the “nitrogen-containing compound effect(no GH61)” value is given as 0.951±0.0198 in series [1] (1 mM 2-aminophenol, cellulose 29.5 mg per ml, 3 days) and 0.902±0.0301 in series [1] (1 mM 2-aminophenol, cellulose 29.5 mg per ml, 7 days). Besides, the reduction in hydrolysis result in series [1] (1 mM 2-aminophenol, 3 days) is listed as “approximately 5%”; in series [1] (1 mM 2-aminophenol, 7 days), “approximately 10%”.
`CC(C)=NO` [acetone oxime]: the “nitrogen-containing compound effect(no GH61)” value in series [1] (setting [10]) is given as “less than 1”.

B1: A. fumigatus GH61B polypeptide: GH61 polypeptide having cellulolytic enhancing activity, SEQ ID NO: 30, recombinantly prepared in Aspergillus oryzae JaL355 (protein, listed as Aspergillus fumigatus)
chain: MTLSKITSIAGLLASASLVAGHGFVSGIVADGKYYGGYLVNQYPYMSNPPDTIAWSTTATDLGFVDGTGYQSPDIICHRDAKNGKLTATVAAGSQIEFQWTTWPESHHGPLITYLAPCNGDCATVDKTTLKFVKIAAQGLIDGSNPPGVWADDEMIANNNTATVTIPASYAPGNYVLRHEIIALHSAGNLNGAQNYPQCFNIQITGGGSAQGSGTAGTSLYKNTDPGIKFDIYSDLSGGYPIPGPALFNA
Regarding B1, the “overall conversion of AVICEL, comparison of GH61 polypeptides” value in series [7] (mixtures of compounds at 3 mM) is “highest overall conversion”.

B2: T. aurantiacus GH61A polypeptide: GH61A polypeptide having cellulolytic enhancing activity, SEQ ID NO: 14, recombinantly prepared in Aspergillus oryzae JaL250 (protein, listed as Thermoascus aurantiacus)
chain: MSFSKIIATAGVLASASLVAGHGFVQNIVIDGKYYGGYLVNQYPYMSNPPEVIAWSTTATDLGFVDGTGYQTPDIICHRGAKPGALTAPVSPGGTVELQWTPWPDSHHGPVINYLAPCNGDCSTVDKTQLEFFKIAESGLINDDNPPGIWASDNLIAANNSWTVTIPTTIAPGNYVLRHEIIALHSAQNQDGAQNYPQCINLQVTGGGSDNPAGTLGTALYHDTDPGILINIYQKLSSYIIPGPPLYTG
For the molecule B2, the “Percent conversion of AVICEL” value stood at 16±1% in series [8] (14 mg/ml AVICEL, cellulase 4 mg/g cellulose, GH61 0.4 mg/g where present, pH 5.0, 50° C., 1 day); 30±4% in series [8] (same conditions, 3 days); 42.7±0.9% in series [8] (same conditions, 5 days); 45±4% in series [8] (same conditions, 7 days); 52.9±0.8% in series [8] (same conditions, 8 days). In series [7] (most mixtures of compounds at 1 mM), the “overall conversion of AVICEL, comparison of GH61 polypeptides” value is reported as “greatest overall conversion”.
